Assay results reported in ChEMBL document CHEMBL1121424, “Orally active cephalosporins and penicillins” (J Med Chem, 1980).
Converted amounts (≈) assume the structure as drawn.

Legend:
Streptococcus pneumoniae [1] = test: Tested for inhibition of visible growth of Streptococcus pneumoniae; type: functional
[2] = Tested for inhibition of visible growth of Salmonella schottmuelleri; type: functional
Enterococcus faecalis = test: Tested for inhibition of visible growth of Streptococcus faecalis; type: functional
Proteus mirabilis = test: Tested for inhibition of visible growth of Proteus mirabilis; type: functional
Mus musculus [3] = test: Tested for the antimicrobial activity against Streptococcus pyogenes (St141) in mice, subcutaneously; type: functional; settings: sc
Staphylococcus aureus [4] = test: Tested for inhibition of visible growth of Staphylococcus aureus; type: functional
Staphylococcus aureus [5] = test: Tested for inhibition of visible growth of Staphylococcus aureus, benzyl-penicillin sensitive; type: functional
Mus musculus [6] = organism: Mus musculus; test: Tested for the antimicrobial activity against Streptococcus pyogenes (St141) in mice, perorally; type: functional; settings: po
Mus musculus [7] = test: Tested for the antimicrobial activity against Staphylococcus aureus (M240) in mice, subcutaneously; type: functional; settings: sc
Klebsiella pneumoniae = test: Tested for inhibition of visible growth of Klebsiella pneumoniae; type: functional
Mus musculus [8] = organism: Mus musculus; test: Tested for the antimicrobial activity against Streptococcus pyogenes (ST139) in mice, perorally; type: functional; settings: po
Klebsiella aerogenes = test: Tested for inhibition of visible growth of Enterobacter aerogenes; type: functional
Escherichia coli [9] = test: Tested for inhibition of visible growth of Escherichia coli; type: functional
Mus musculus [10] = test: Tested for the antimicrobial activity against Staphylococcus aureus (M202) in mice, subcutaneously; type: functional; settings: sc
Mus musculus [11] = test: Tested for the antimicrobial activity against Streptococcus pneumoniae (D815) in mice, subcutaneously; type: functional; settings: sc
Streptococcus pyogenes [12] = test: Tested for inhibition of visible growth of Streptococcus pyogenes; type: functional
Mus musculus [13] = test: Tested for the antimicrobial activity against Streptococcus pneumoniae (D137) in mice, subcutaneously; type: functional; settings: sc
Pseudomonas aeruginosa = test: Tested for inhibition of visible growth of Pseudomonas aeruginosa; type: functional
Mus musculus [14] = organism: Mus musculus; test: Tested for the antimicrobial activity against Staphylococcus aureus (M240) in mice, perorally; type: functional; settings: po
Enterobacter cloacae = test: Tested for inhibition of visible growth of Enterobacter cloacae; type: functional
Mus musculus [15] = organism: Mus musculus; test: Tested for the antimicrobial activity against Streptococcus pneumoniae (D815) in mice, perorally; type: functional; settings: po
Mus musculus [16] = test: Tested for the antimicrobial activity against Streptococcus pyogenes (ST139) in mice, subcutaneously; type: functional; settings: sc
Mus musculus [17] = organism: Mus musculus; test: Tested for the antimicrobial activity against Streptococcus pneumoniae (D137) in mice, perorally; type: functional; settings: po
Mus musculus [18] = organism: Mus musculus; test: Tested for the antimicrobial activity against Staphylococcus aureus (M202) in mice, perorally; type: functional; settings: po
[19] = (§1) Tested for the antimicrobial activity against Salmonella schottmuelleri in mice; type: functional
Mus musculus [20] = test: Tested for the antimicrobial activity against Streptococcus pyogenes in mice, subcutaneously.; type: functional; settings: sc
Streptococcus pyogenes [21] = test: (§2) Tested for the antimicrobial activity against Streptococcus pyogenes in mice; type: functional
[22] = as §1; type: functional; remark: listed apart in the source
Escherichia coli [23] = test: Tested for the antimicrobial activity against Escherichia coli in mice perorally; type: functional; settings: po
Escherichia coli [24] = test: Tested for the antimicrobial activity against Escherichia coli in mice; type: functional
Streptococcus pneumoniae [25] = test: (§3) Tested for the antimicrobial activity against Streptococcus pneumoniae in mice; type: functional
Streptococcus pyogenes [26] = test: as §2; type: functional; remark: listed apart in the source
Staphylococcus aureus [27] = test: Tested for the antimicrobial activity against Staphylococcus aureus, benzyl-penicillin sensitive in mice, perorally; type: functional; settings: po
Mus musculus [28] = organism: Mus musculus; test: Tested for the antimicrobial activity against Staphylococcus aureus, benzyl-penicillin resistant in mice, perorally; type: functional; settings: po
Staphylococcus aureus [29] = test: Tested for the antimicrobial activity against Staphylococcus aureus; type: functional
Streptococcus pneumoniae [30] = test: as §3; type: functional; remark: listed apart in the source
[31] = Tested for the peak time in mice following 39 mg/kg oral dose of cephalosporin; type: ADME, organism-based; design: dose 39 mg/kg, route oral; settings: mouse, in vivo, read-out: Peak time (converted)
[32] = Tested for the peak time in mice following 11.8 mg/kg, oral (administered as the sodium salt dissolved in H2O); type: ADME, organism-based; design: dose 11.8 mg/kg, route oral; settings: mouse, in vivo, read-out: Peak time (converted)
[33] = tested for the peak time in mice following 6.9 mg/kg, oral (administered as the hydrochloride salt dissolved in H2O); type: ADME, organism-based; design: dose 6.9 mg/kg, route oral; settings: mouse, in vivo, read-out: Peak time (converted)
Mus musculus [34] = test: Tested for the antimicrobial activity against […], benzyl-penicillin sensitive in mice, subcutaneously; type: functional; settings: sc
Mus musculus [35] = organism: Mus musculus; test: Tested for the antimicrobial activity against Staphylococcus aureus, benzyl-penicillin sensitive in mice, perorally; settings: po

SMILES	MIC (Streptococcus pneumoniae [1]) [µg/mL]	MIC [2] [µg/mL]	MIC (Enterococcus faecalis) [µg/mL]	MIC (Proteus mirabilis) [µg/mL]	MIC (Staphylococcus aureus [4]) [µg/mL]	MIC (Staphylococcus aureus [5]) [µg/mL]	MIC (Klebsiella pneumoniae) [µg/mL]	MIC (Klebsiella aerogenes) [µg/mL]	MIC (Escherichia coli [9]) [µg/mL]	MIC (Streptococcus pyogenes [12]) [µg/mL]	MIC (Enterobacter cloacae) [µg/mL]	ED50 [19] [mg/kg]	ED50 (Streptococcus pyogenes [21]) [mg/kg]	ED50 [22] [mg/kg]	ED50 (Escherichia coli [24]) [mg/kg]	ED50 (Streptococcus pneumoniae [25]) [mg/kg]	ED50 (Streptococcus pyogenes [26]) [mg/kg]	ED50 (Staphylococcus aureus [27]) [mg/kg]	ED50 (Staphylococcus aureus [29]) [mg/kg]	ED50 (Streptococcus pneumoniae [30]) [mg/kg]	further results
CC1(C)SC2C(NC(=O)C(N)c3ccc4c(c3)OCO4)C(=O)N2C1C(=O)O (stereo unspecified)	≤ 0.03	1.6 (≈ 4.07 µM)	3.1 (≈ 7.88 µM)	25 (≈ 63.5 µM)	100 (≈ 254 µM)	0.1 (≈ 0.254 µM)	6.2 (≈ 15.8 µM)	> 100	25 (≈ 63.5 µM)	≤ 0.03	> 100	–	–	–	–	–	–	–	–	–	ED50 (Mus musculus [3]): 0.13 mg/kg; ED50 (Mus musculus [6]): 0.22 mg/kg; ED50 (Mus musculus [7]): < 0.063 mg/kg; ED50 (Mus musculus [8]): 0.29 mg/kg; ED50 (Mus musculus [10]): 0.53 mg/kg; ED50 (Mus musculus [11]): 0.078 mg/kg; ED50 (Mus musculus [13]): 0.16 mg/kg; MIC (Pseudomonas aeruginosa): > 100 µg/mL; ED50 (Mus musculus [14]): 0.32 mg/kg; ED50 (Mus musculus [15]): 0.25 mg/kg; ED50 (Mus musculus [16]): 0.06 mg/kg; ED50 (Mus musculus [17]): 0.35 mg/kg; ED50 (Mus musculus [18]): 0.25 mg/kg
NC(C(=O)NC1C(=O)N2C(C(=O)O)=C(CSc3cn[nH]n3)CS[C@H]12)c1ccc2c(c1)CCO2 (stereo partly specified)	0.1 (≈ 0.205 µM)	3.1 (≈ 6.35 µM)	100 (≈ 205 µM)	100 (≈ 205 µM)	1.6 (≈ 3.27 µM)	0.4 (≈ 0.819 µM)	6.2 (≈ 12.7 µM)	25 (≈ 51.2 µM)	12.5 (≈ 25.6 µM)	0.1 (≈ 0.205 µM)	50 (≈ 102 µM)	30	0.27	> 40	11	–	–	–	–	–	ED50 (Mus musculus [20]): 0.19 mg/kg; ED50 (Escherichia coli [23]): 19 mg/kg
CC1=C(C(=O)O)N2C(=O)C(NC(=O)[C@H](N)c3ccc4c(c3)OCCO4)C2SC1 (stereo partly specified)	0.8 (≈ 1.97 µM)	50 (≈ 123 µM)	> 100	> 100	3.1 (≈ 7.65 µM)	0.8 (≈ 1.97 µM)	100 (≈ 247 µM)	> 100	> 100	0.4 (≈ 0.987 µM)	> 100	–	1	–	–	14	0.81	0.5	1.5	15	ED50 (Mus musculus [28]): 8.3 mg/kg
CC1=C(C(=O)O)N2C(=O)C(NC(=O)[C@H](N)c3ccc4c(c3)CCO4)C2SC1 (stereo partly specified)	0.4 (≈ 1.03 µM)	12.5 (≈ 32.1 µM)	> 100	> 100	1.6 (≈ 4.11 µM)	0.4 (≈ 1.03 µM)	25 (≈ 64.2 µM)	> 100	50 (≈ 128 µM)	0.2 (≈ 0.514 µM)	> 100	–	0.37	–	–	10	0.34	0.67	0.63	8.6	Tmax [31]: 10 min; ED50 (Mus musculus [28]): 7 mg/kg

Second part, led by results:

MIC (Streptococcus pneumoniae [1]) [µg/mL]	MIC [2] [µg/mL]	MIC (Enterococcus faecalis) [µg/mL]	MIC (Proteus mirabilis) [µg/mL]	MIC (Staphylococcus aureus [4]) [µg/mL]	MIC (Staphylococcus aureus [5]) [µg/mL]	MIC (Klebsiella pneumoniae) [µg/mL]	MIC (Klebsiella aerogenes) [µg/mL]	MIC (Escherichia coli [9]) [µg/mL]	MIC (Streptococcus pyogenes [12]) [µg/mL]	MIC (Enterobacter cloacae) [µg/mL]	SMILES	ED50 [19] [mg/kg]	ED50 (Streptococcus pyogenes [21]) [mg/kg]	ED50 [22] [mg/kg]	ED50 (Escherichia coli [24]) [mg/kg]	ED50 (Streptococcus pneumoniae [25]) [mg/kg]	ED50 (Streptococcus pyogenes [26]) [mg/kg]	ED50 (Staphylococcus aureus [27]) [mg/kg]	ED50 (Staphylococcus aureus [29]) [mg/kg]	ED50 (Streptococcus pneumoniae [30]) [mg/kg]	further results
0.1 (≈ 0.192 µM)	1.6 (≈ 3.07 µM)	50 (≈ 95.9 µM)	> 100	3.1 (≈ 5.94 µM)	0.2 (≈ 0.383 µM)	6.2 (≈ 11.9 µM)	25 (≈ 47.9 µM)	12.5 (≈ 24 µM)	0.1 (≈ 0.192 µM)	25 (≈ 47.9 µM)	Cc1nnc(SCC2=C(C(=O)O)N3C(=O)C(NC(=O)[C@H](N)c4ccc5c(c4)OCO5)C3SC2)s1 (stereo partly specified)	8	0.84	40	10.6	0.79	0.23	0.8	0.29	1.3	Tmax [32]: 30 min; Tmax [33]: 30 min; ED50 (Escherichia coli [23]): 33.9 mg/kg
0.1 (≈ 0.198 µM)	0.8 (≈ 1.58 µM)	50 (≈ 98.9 µM)	25 (≈ 49.5 µM)	1.6 (≈ 3.16 µM)	0.2 (≈ 0.396 µM)	3.1 (≈ 6.13 µM)	3.1 (≈ 6.13 µM)	3.1 (≈ 6.13 µM)	0.05 (≈ 0.0989 µM)	6.2 (≈ 12.3 µM)	Cn1nnnc1SCC1=C(C(=O)O)N2C(=O)C(NC(=O)[C@H](N)c3ccc4c(c3)OCO4)C2SC1 (stereo partly specified)	< 3.1	0.37	16	2.1	0.74	0.14	–	–	> 10	ED50 (Mus musculus [34]): 0.31 mg/kg; ED50 (Mus musculus [35]): > 2 mg/kg
